Laboratory results published in the supplement of paper PMC10307832.

What was measured:
Test in all cases: relative viability (nuclei count vs DMSO), 5 days (fraction); higher = more cells survive
[1] = compound: Cc1ccc(Nc2nccc(N(C)c3ccc4c(C)n(C)nc4c3)n2)cc1S(N)(=O)=O [Pazopanib] + CC(C)C[C@H](NC(=O)[C@H](Cc1ccccc1)NC(=O)c1cnccn1)B(O)O [Bortezomib] (partner 0.002 µM)
How it was run: (§1)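 Nuclei were stained with Hoechst during a one-step fixation (final 0.05% Triton X-100, 1% formaldehyde, 1 ug/ml Hoechst) carried out 5 days after dosing, then counted on 4× images. The cells, lung cancer lines in 1536-well plates, had been dosed by pin tool the day after seeding with one drug alone or a fixed anchor-drug dose plus five library-drug doses (not always all listed) in √10 steps. Relative viability is the nuclei count in treated wells divided by that in vehicle wells, and each value is the median of duplicate plates.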

[2] = compound: Cc1ccc(C(=O)Nc2ccc(CN3CCN(C)CC3)c(C(F)(F)F)c2)cc1C#Cc1cnc2cccnn12 [Ponatinib] + CC(=O)c1c(C)c2cnc(Nc3ccc(N4CCNCC4)cn3)nc2n(C2CCCC2)c1=O [Palbociclib] (partner 0.5 µM)
How it was run: as §1

[3] = compound: Cc1ccc(Nc2nccc(N(C)c3ccc4c(C)n(C)nc4c3)n2)cc1S(N)(=O)=O [Pazopanib] + O=C(CCCCCCC(=O)Nc1ccccc1)NO [Vorinostat] (partner 1 µM)
How it was run: as §1

[4] = compound: Cc1ccc(C(=O)Nc2ccc(CN3CCN(C)CC3)c(C(F)(F)F)c2)cc1C#Cc1cnc2cccnn12 [Ponatinib] + C[C@@H](Oc1cc(-c2cnn(C3CCNCC3)c2)cnc1N)c1c(Cl)ccc(F)c1Cl [Crizotinib] (partner 1 µM)
How it was run: as §1

| Cell Line | relative viability ([1]; first compound 0.01 µM) | relative viability ([1]; first compound 0.03162 µM) | relative viability ([1]; first compound 0.1 µM) | relative viability ([1]; first compound 0.3162 µM) | relative viability ([1]; first compound 1 µM) | relative viability ([2]; first compound 0.002 µM) | relative viability ([2]; first compound 0.006325 µM) | relative viability ([2]; first compound 0.06325 µM) | relative viability ([2]; first compound 0.2 µM) | relative viability ([3]; first compound 0.01 µM) | relative viability ([3]; first compound 0.03162 µM) | relative viability ([3]; first compound 0.1 µM) | relative viability ([3]; first compound 0.3162 µM) | relative viability ([3]; first compound 1 µM) | relative viability ([4]; first compound 0.002 µM) | relative viability ([4]; first compound 0.006325 µM) | relative viability ([4]; first compound 0.06325 µM) | relative viability ([4]; first compound 0.2 µM) |
| --- | --- | --- | --- | --- | --- | --- | --- | --- | --- | --- | --- | --- | --- | --- | --- | --- | --- | --- |
| NCI-H661 | 0.823 | 0.853 | 0.786 | 0.631 | 0.873 | 0.412 | 0.412 | 0.434 | 0.416 | 0.773 | 0.808 | 0.875 | 0.759 | 0.802 | 1.02 | 1.04 | 0.99 | 1.13 |
| NCI-H727 | 0.791 | 0.938 | 0.98 | 0.928 | 1.11 | 0.737 | 0.708 | 0.769 | 0.654 | 1.17 | – | 1.06 | 1.15 | 1.08 | 0.853 | 0.686 | 0.893 | 0.765 |
| NCI-H838 | 0.898 | 0.883 | 0.927 | 0.87 | 1.2 | 0.216 | 0.234 | 0.219 | 0.21 | 0.72 | 0.734 | 0.816 | 0.706 | 0.794 | 0.793 | 0.95 | 0.813 | 0.789 |
| NCI-H1355 | – | 1.17 | 1.21 | 1.21 | 1.35 | 0.43 | 0.432 | 0.492 | 0.439 | 0.488 | 0.632 | 0.696 | 0.643 | 0.651 | 0.989 | 1.06 | 1.16 | 1.15 |
| NCI-H1437 | 0.617 | 0.537 | 0.428 | 0.518 | 0.583 | 0.285 | 0.318 | 0.316 | 0.332 | 0.833 | 0.778 | 0.82 | 0.762 | 0.75 | 0.899 | 0.957 | 0.967 | 0.763 |
| NCI-H1650 | 0.204 | 0.212 | 0.235 | 0.191 | 0.21 | 0.345 | 0.365 | 0.413 | 0.335 | 0.654 | 0.615 | 0.605 | 0.59 | 0.704 | 1.03 | 0.939 | 1.17 | 0.821 |
| NCI-H1651 | 0.753 | 0.954 | 0.965 | 0.97 | 0.916 | 0.529 | 0.539 | 0.557 | 0.552 | 0.536 | 0.588 | 0.621 | 0.534 | 0.637 | 0.835 | 0.852 | 0.897 | 0.876 |
| NCI-H1666 | 0.707 | 0.829 | 0.77 | 1.01 | 1.35 | 0.661 | 0.659 | 0.666 | 0.639 | 1.15 | 1.09 | 0.993 | 1.06 | 0.909 | 0.951 | 0.978 | 1.06 | 0.989 |
| NCI-H1734 | 0.846 | 0.897 | 1.01 | 0.996 | 0.935 | 0.34 | 0.358 | 0.347 | 0.284 | 0.66 | 0.864 | 0.882 | 0.942 | 0.875 | 0.638 | 0.657 | 0.647 | 0.577 |
